Measured values published in PMC9841523 (Journal of Medicinal Chemistry, 2022).
Where two headings read alike, the source gives them in different places.

How the values were obtained:
Assay type in all cases: cell-based
[1] = system: AKT S473 phosphorylation (mTORC2); assay: AlphaLISA/MSD analysis of AKT phosphorylation in MDA-MB-468 cells; details: for IC50: Homo sapiens
Protocol: (§1) Cell culture and reagents. Cells were obtained from ATCC, grown in appropriate medium supplemented with 10% fetal bovine serum and 1% penicillin/streptomycin and maintained at 37 °C in a humidified incubator at 5% CO 2.
(§2) AlphaLISA and MesoScale Discovery (MSD) analysis of 4EBP1, S6K and AKT phosphorylation. mTOR substrate phosphorylation in MDA-MB-468 cells was assayed using AlphaLISA SureFire Ultra kits for p4EBP1 Thr37/46, p-P70S6K Thr389 and p-AKT1/2/3 Ser473 (PerkinElmer), and MSD Multi-Array Assay Systems for Phospho-4EBP1 (Thr37/46) and Phospho-AKT (Ser473) (MSD). Cells were seeded at 25,000 cells per well and exposed the next day to serial three-fold dilutions of compounds in complete medium with 0.1% dimethylsulfoxide (DMSO). After indicated incubation times, cells were lysed and AlphaLISA or MSD performed according to the manufacturers’ protocols. Samples were read using an EnVision Multilabel Plate Reader (PerkinElmer) using standard AlphaLISA settings or using an MSD plate reader. Data were plotted as a function of logM [compound] with a sigmoidal concentration response (variable slope) model fitted to the data to estimate the inhibitor half-maximum effective concentration (EC 50) in Prism 7 (GraphPad). Alternatively, results were analyzed as percentage of control in which 0% was set as signal from 1 μM Torin1 and 100% was set as the mean of DMSO wells on each plate, and inhibitor EC 50 was estimated as described

[2] = system: 4EBP1 T37/T46 phosphorylation (mTORC1); assay: AlphaLISA/MSD analysis of 4EBP1 phosphorylation in MDA-MB-468 cells; details: for IC50: Homo sapiens, read-out: p4EBP1 IC50; for reduction in mTORC1 p4EBP1 activity on going from 8 PEG units to 6 PEG units: versus the 8 PEG analog
Protocol: as §1, §2

[3] = system: p-P70S6K Thr389; assay: AlphaLISA/MSD analysis of S6K phosphorylation in MDA-MB-468 cells; details: Homo sapiens; MDA-MB-468 cells; read-out: pS6K IC50
Protocol: as §1, §2

[4] = MDA-MB-468 cells, read-out: pAKT IC50
[5] = up to a maximal test concentration of 1 μM

| SMILES | IC50 [1, 4] | IC50 ([2]; MDA-MB-468 cells) | IC50 [3] | IC50 ([1]; MDA-MB-468, read-out: pAKT IC50) | selectivity for mTORC1 over mTORC2 ([2]; pAKT versus p4EBP1 inhibition, MDA-MB-468 cells) | pAKT inhibition [1, 5] | p4EBP1 inhibition [2, 5] | reduction in mTORC1 p4EBP1 activity on going from 8 PEG units to 6 PEG units [2] |
| --- | --- | --- | --- | --- | --- | --- | --- | --- |
| CO[C@H]1C[C@@H]2CC[C@@H](C)[C@@](O)(O2)C(=O)C(=O)N2CCCC[C@H]2C(=O)O[C@H]([C@H](C)C[C@@H]2CC[C@@H](OCCOCc3cn(CCOCCOCCOCCOCCOCCOCCOCCOCCC(=O)NCCCCn4nc(-c5ccc6oc(N)nc6c5)c5c(N)ncnc54)nn3)[C@H](OC)C2)CC(=O)[C@H](C)/C=C(\C)[C@@H](O)[C@@H](OC)C(=O)[C@H](C)C[C@H](C)/C=C/C=C/C=C/1C [compound 3, RapaLink-1, reference compound] | 6.7 nM | 1.7 nM | 0.93 nM |  |  |  |  |  |
| Nc1ncnc2c1c(-c1cnc3[nH]ccc3c1)nn2C1CCCC1 [compound 8, PP121, reference compound] |  |  |  | 100 nM |  |  |  |  |
| CO[C@H]1C[C@@H]2CC[C@@H](C)[C@@](O)(O2)C(=O)C(=O)N2CCCC[C@H]2C(=O)O[C@H]([C@H](C)C[C@@H]2CC[C@@H](OCCCCc3cn(CCOCCOCCOCCOCCOCCOCCOCCOCCC(=O)NCCCCn4nc(-c5ccc6oc(N)nc6c5)c5c(N)ncnc54)nn3)[C@H](OC)C2)CC(=O)[C@H](C)/C=C(\C)[C@@H](O)[C@@H](OC)C(=O)[C@H](C)C[C@H](C)/C=C/C=C/C=C/1C [compound 16] | 3.1 nM | 1.1 nM | 0.42 nM |  |  |  |  |  |
| CO[C@H]1C[C@@H]2CC[C@@H](C)[C@@](O)(O2)C(=O)C(=O)N2CCCC[C@H]2C(=O)O[C@H]([C@H](C)C[C@@H]2CC[C@@H](OCCOCc3cn(CCOCCOCCOCCOCCOCCOCCOCCOCCC(=O)NCCCCn4nc(-c5cc6cc(O)ccc6[nH]5)c5c(N)ncnc54)nn3)[C@H](OC)C2)CC(=O)[C@H](C)/C=C(\C)[C@@H](O)[C@@H](OC)C(=O)[C@H](C)C[C@H](C)/C=C/C=C/C=C/1C [compound 17, reference compound] | 24 nM | 2.5 nM | 0.47 nM |  |  |  |  |  |
| CO[C@H]1C[C@@H]2CC[C@@H](C)[C@@](O)(O2)C(=O)C(=O)N2CCCC[C@H]2C(=O)O[C@H]([C@H](C)C[C@@H]2CC[C@@H](OCCCCc3cn(CCOCCOCCOCCOCCOCCOCCOCCOCCC(=O)NCCCCn4nc(-c5cc6cc(O)ccc6[nH]5)c5c(N)ncnc54)nn3)[C@H](OC)C2)CC(=O)[C@H](C)/C=C(\C)[C@@H](O)[C@@H](OC)C(=O)[C@H](C)C[C@H](C)/C=C/C=C/C=C/1C [compound 18] | 18 nM | 1.4 nM | 0.28 nM |  | approximately 13 fold |  |  |  |
| COc1ccc(-c2ccc3ncc4c(c3c2)n(C)c(=O)n4-c2ccc(N3CCN(C(=O)CCOCCOCCOCCOCCOCCOCCOCCOCCn4cc(CCCCO[C@@H]5CC[C@@H](C[C@@H](C)[C@@H]6CC(=O)[C@H](C)/C=C(\C)[C@@H](O)[C@@H](OC)C(=O)[C@H](C)C[C@H](C)/C=C/C=C/C=C(\C)[C@@H](OC)C[C@@H]7CC[C@@H](C)[C@@](O)(O7)C(=O)C(=O)N7CCCC[C@H]7C(=O)O6)C[C@H]5OC)nn4)CC3)c(C(F)(F)F)c2)cn1 [compound 19] | 0.52 nM | 0.06 nM | 0.02 nM |  |  |  |  |  |
| CO[C@H]1C[C@@H]2CC[C@@H](C)[C@@](O)(O2)C(=O)C(=O)N2CCCC[C@H]2C(=O)O[C@H]([C@H](C)C[C@@H]2CC[C@@H](OCCCCc3cn(CCOCCOCCOCCOCCOCCOCCOCCOCCC(=O)NCCCCn4nc(-c5cnc6[nH]ccc6c5)c5c(N)ncnc54)nn3)[C@H](OC)C2)CC(=O)[C@H](C)/C=C(\C)[C@@H](O)[C@@H](OC)C(=O)[C@H](C)C[C@H](C)/C=C/C=C/C=C/1C [compound 20] | 17 nM | 1 nM | 0.22 nM |  |  |  |  |  |
| CO[C@H]1C[C@@H]2CC[C@@H](C)[C@@](O)(O2)C(=O)C(=O)N2CCCC[C@H]2C(=O)O[C@H]([C@H](C)C[C@@H]2CC[C@@H](OCCCCc3cn(CCOCCOCCOCCOCCOCCOCCOCCOCCC(=O)N4CCc5cc(Cn6nc(-c7ccc8oc(N)nc8c7)c7c(N)ncnc76)ccc5C4)nn3)[C@H](OC)C2)CC(=O)[C@H](C)/C=C(\C)[C@@H](O)[C@@H](OC)C(=O)[C@H](C)C[C@H](C)/C=C/C=C/C=C/1C [compound 21] | 8.8 nM | 0.44 nM | 0.13 nM |  |  |  |  |  |
| CO[C@H]1C[C@@H]2CC[C@@H](C)[C@@](O)(O2)C(=O)C(=O)N2CCCC[C@H]2C(=O)O[C@H]([C@H](C)C[C@@H]2CC[C@@H](OCCCCc3cn(CCOCCOCCOCCOCCOCCOCCOCCOCCC(=O)N4CCC(Cn5nc(-c6ccc7oc(N)nc7c6)c6c(N)ncnc65)CC4)nn3)[C@H](OC)C2)CC(=O)[C@H](C)/C=C(\C)[C@@H](O)[C@@H](OC)C(=O)[C@H](C)C[C@H](C)/C=C/C=C/C=C/1C [compound 22] | 1.8 nM | 0.67 nM | 0.16 nM |  |  |  |  |  |
| CO[C@H]1C[C@@H]2CC[C@@H](C)[C@@](O)(O2)C(=O)C(=O)N2CCCC[C@H]2C(=O)O[C@H]([C@H](C)C[C@@H]2CC[C@@H](OCCCCc3cn(CCOCCOCCOCCOCCOCCOCCOCCOCCC(=O)NCCCCn4nc(-c5ccc6oc(N)nc6c5)c5c(N(C)C)ncnc54)nn3)[C@H](OC)C2)CC(=O)[C@H](C)/C=C(\C)[C@@H](O)[C@@H](OC)C(=O)[C@H](C)C[C@H](C)/C=C/C=C/C=C/1C [compound 23] | > 1000 nM | > 1000 nM | 0.29 nM |  |  | inactive | inactive |  |
| CO[C@H]1C[C@@H]2CC[C@@H](C)[C@@](O)(O2)C(=O)C(=O)N2CCCC[C@H]2C(=O)O[C@H]([C@H](C)C[C@@H]2CC[C@@H](OCCCCc3cn(CCOCCOCCOCCOCCOCCOCCC(=O)NCCCCn4nc(-c5cnc6[nH]ccc6c5)c5c(N)ncnc54)nn3)[C@H](OC)C2)CC(=O)[C@H](C)/C=C(\C)[C@@H](O)[C@@H](OC)C(=O)[C@H](C)C[C@H](C)/C=C/C=C/C=C/1C [compound 24] | 110 nM | 31 nM | 0.24 nM |  |  |  |  | > 30 fold |
| CO[C@H]1C[C@@H]2CC[C@@H](C)[C@@](O)(O2)C(=O)C(=O)N2CCCC[C@H]2C(=O)O[C@H]([C@H](C)C[C@@H]2CC[C@@H](OCCCCc3cn(CCOCCOCCOCCOCCOCCOCCC(=O)NCCCCn4nc(-c5cc6cc(O)ccc6[nH]5)c5c(N)ncnc54)nn3)[C@H](OC)C2)CC(=O)[C@H](C)/C=C(\C)[C@@H](O)[C@@H](OC)C(=O)[C@H](C)C[C@H](C)/C=C/C=C/C=C/1C [compound 25] | 120 nM | 370 nM | 0.59 nM |  |  |  |  | > 250 fold |
| COc1ccc(-c2ccc3ncc4c(c3c2)n(-c2ccc(N3CCN(C(=O)CCOCCOCCOCCOCCOCCOCCn5cc(CCCCO[C@@H]6CC[C@@H](C[C@@H](C)[C@@H]7CC(=O)[C@H](C)/C=C(\C)[C@@H](O)[C@@H](OC)C(=O)[C@H](C)C[C@H](C)/C=C/C=C/C=C(\C)[C@@H](OC)C[C@@H]8CC[C@@H](C)[C@@](O)(O8)C(=O)C(=O)N8CCCC[C@H]8C(=O)O7)C[C@H]6OC)nn5)CC3)c(C(F)(F)F)c2)c(=O)n4C)cn1 [compound 26] | 0.74 nM | 0.08 nM | 0.03 nM |  |  |  |  |  |
| CO[C@H]1C[C@@H]2CC[C@@H](C)[C@@](O)(O2)C(=O)C(=O)N2CCCC[C@H]2C(=O)O[C@H]([C@H](C)C[C@@H]2CC[C@@H](OCCCCc3cn(CCOCCOCCOCCOCCOCCOCCC(=O)NCCCCn4nc(-c5ccc6oc(N)nc6c5)c5c(N)ncnc54)nn3)[C@H](OC)C2)CC(=O)[C@H](C)/C=C(\C)[C@@H](O)[C@@H](OC)C(=O)[C@H](C)C[C@H](C)/C=C/C=C/C=C/1C [compound 27] | 5.2 nM | 1.1 nM | 0.26 nM |  |  |  |  |  |
